Target: T1, Full-length, GST-tagged, human CaMKIIδ (Homo sapiens, UniProt Q13557)
T1 construct: Full-Length, Glutathione-S-Transferase(GST)-Tagged, Human CaMKIIδ was purchased from Carna Biosciences; purchased Carna Biosciences 02-111
Assay: CaMKIIδ binding assay (TR-FRET with BODIPY-labeled probe ligand)
Conditions: CaMKIIδ binding assay, results of Table 2
Procedure: In vitro CaMKIIδ inhibitory activity was evaluated by a binding assay.
Full-Length, Glutathione-S-Transferase(GST)-Tagged, Human CaMKIIδ was purchased from Carna Biosciences (product #02-111, Kobe, Japan). Full-length bovine calmodulin was purchased from Wako Pure Chemical Industries (Osaka, Japan). Terbium-labeled anti-GST antibody (Tb-anti-GST Ab) was purchased from Life Technologies (Carlsbad, Calif., USA). Boron-dipyrromethene (BODIPY)-labeled probe ligand was synthesized as described below.
Time-Resolved Fluorescence Resonance Energy Transfer (TR-FRET) Assay
All assays were conducted using 384-well, white, flat-bottomed plates (product #784075, Greiner Bio-One, Frickenhausen, Germany) in kinase assay buffer, which consists of 50 mM HEPES pH 7.6, 10 mM MgCl2, 1 mM EGTA, 0.01% Brig-35, 0.1 mM DTT). The fluorescent probe ligand was added at a final concentration of 300 nM to solutions containing 0.21 nM Tb-anti-GST Ab, 1 mM CaCl2), 10 μg/mL calmodulin, and 0.5 nM GST-tagged CaMKIIδ. After shaded incubation of the protein-probe mixture on ice for 30 min, the premix was dispensed in the assay plate including test inhibitors with 4 fold dilution series of eight concentrations. After 1 hr incubation at room temperature, TR-FRET signals were measured in duplicate using an EnVision microplate reader (Perkin Elmer, Waltham, Mass., USA). The solution in each well was excited with a laser (λ=340 nm) reflected by a dichroic mirror (D400/D505 (Perkin Elmer) through an excitation filter (UV (TRF) 340, (Perkin Elmer)), and fluorescence from Tb and BODIPY were detected through two emission filters (CFP 495 (Perkin Elmer) for Tb, Emission 520 (Perkin Elmer) for BODIPY).
The percentage of inhibition of test compounds was calculated according to equation (1) Inhibition (%)=100×([…]−T)/(μH−μL) (1)
Where T is the value of the wells containing test compounds and μH and μL are the mean values of the 0% and 100% inhibition control wells, respectively. The values of the 0 and 100% controls were the signals obtained in the absence and presence of 3 μM its parent compound, respectively. The half maximal inhibitory concentration (IC50) of test compounds was calculated by fitting the data with the logistic equation using XLfit (IDBS, Guildford, UK). The IC50 was classified according to the following activity ranks.

T1 sequence (Q13557 1-478 isoform Q13557-12): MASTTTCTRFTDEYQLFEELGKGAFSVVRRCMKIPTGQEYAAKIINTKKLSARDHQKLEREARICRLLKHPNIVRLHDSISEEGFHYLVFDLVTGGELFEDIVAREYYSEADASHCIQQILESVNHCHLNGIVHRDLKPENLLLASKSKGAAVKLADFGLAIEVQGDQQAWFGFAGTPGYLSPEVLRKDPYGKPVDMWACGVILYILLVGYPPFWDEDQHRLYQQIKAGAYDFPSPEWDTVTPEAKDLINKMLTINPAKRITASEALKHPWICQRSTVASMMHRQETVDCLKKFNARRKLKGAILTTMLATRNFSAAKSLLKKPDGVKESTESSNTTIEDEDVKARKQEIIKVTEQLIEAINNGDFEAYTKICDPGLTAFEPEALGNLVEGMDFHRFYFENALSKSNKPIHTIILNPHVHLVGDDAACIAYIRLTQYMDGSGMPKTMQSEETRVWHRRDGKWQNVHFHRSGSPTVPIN

| SMILES | IC50 [nM] |
| --- | --- |
| CC(=O)N1CCC(n2cc(Nc3ncc(-c4ccc(Cl)c(O[C@@H](C)Cn5cnnn5)c4)cn3)c(C(F)(F)F)n2)CC1 [Example 488, (S)-1-(4-(4-((5-(3-((1-(1H-tetrazol-1-yl)propan-2-yl)oxy)-4-chlorophenyl)pyrimidin-2-yl)amino)-3-(trifluoromethyl)-1H-pyrazol-1-yl)piperidin-1-yl)ethan-1-one] | < 10 |
| COCCN1CCc2cc(Nc3ncc(-c4ccc(Cl)c(O[C@@H](C)Cn5cnnn5)c4)cn3)c(OC)cc2C1 [Example 492, (S)-N-(5-(3-((1-(1H-tetrazol-1-yl)propan-2-yl)oxy)-4-chlorophenyl)pyrimidin-2-yl)-7-methoxy-2-(2-methoxyethyl)-1,2,3,4-tetrahydroisoquinolin-6-amine] | < 10 |
| COc1cc2c(cc1Nc1ncc(-c3ccc(Cl)c(O[C@@H](C)Cn4cnnn4)c3)cn1)CN(C(=O)COC(C)=O)CC2 [Example 519, (S)-2-(7-((5-(3-((1-(1H-tetrazol-1-yl)propan-2-yl)oxy)-4-chlorophenyl)pyrimidin-2-yl)amino)-6-methoxy-3,4-dihydroisoquinolin-2(1H)-yl)-2-oxoethyl acetate] | 10 to 100 |
| COc1cc2c(cc1Nc1ncc(-c3ccc(Cl)c(O[C@@H](C)Cn4cnnn4)c3)cn1)CN(c1ccnc(C)n1)CC2 [Example 504, (S)-N-(5-(3-((1-(1H-tetrazol-1-yl)propan-2-yl)oxy)-4-chlorophenyl)pyrimidin-2-yl)-6-methoxy-2-(2-methylpyrimidin-4-yl)-1,2,3,4-tetrahydroisoquinolin-7-amine] | 10 to 100 |
| COc1cc2c(cc1Nc1ncc(-c3ccc(Cl)c(O[C@@H](C)Cn4cnnn4)c3)cn1)CN(C1COC1)CC2 [Example 463, (S)-N-(5-(3-((1-(1H-tetrazol-1-yl)propan-2-yl)oxy)-4-chlorophenyl)pyrimidin-2-yl)-6-methoxy-2-(oxetan-3-yl)-1,2,3,4-tetrahydroisoquinolin-7-amine] | < 10 |
| COc1cnc(C2CCC(F)(F)CC2)cc1Nc1ncc(-c2ccc(Cl)c(O[C@@H](C)Cn3cnnn3)c2)cn1 [Example 508, (S)-5-(3-((1-(1H-tetrazol-1-yl)propan-2-yl)oxy)-4-chlorophenyl)-N-(2-(4,4-difluorocyclohexyl)-5-methoxypyridin-4-yl)pyrimidin-2-amine] | ≥ 100 |

Same assay, conditions: CaMKIIδ binding assay; activity class per Table 2

| SMILES | IC50 [nM] |
| --- | --- |
| C[C@@H](Cn1cnnn1)Oc1cc(-c2cnc(Nc3cn([C@@H]4CCNC[C@H]4O)nc3C(F)(F)F)nc2)ccc1Cl (mixture of isomers) [Example 892, trans-4-(4-((5-(3-(((S)-1-(1H-tetrazol-1-yl)propan-2-yl)oxy)-4-chlorophenyl)pyrimidin-2-yl)amino)-3-(trifluoromethyl)-1H-pyrazol-1-yl)piperidin-3-ol] | < 10 |
| C[C@@H](Cn1cnnn1)Oc1cc(-c2cnc(Nc3cn([C@H]4C[C@H](NC5CCOCC5)C4)nc3OCC(F)(F)F)nc2)ccc1Cl [Example 942, 5-(3-(((S)-1-(1H-tetrazol-1-yl)propan-2-yl)oxy)-4-chlorophenyl)-N-(1-(trans-3-((tetrahydro-2H-pyran-4-yl)amino)cyclobutyl)-3-(2,2,2-trifluoroethoxy)-1H-pyrazol-4-yl)pyrimidin-2-amine] | < 10 |
| C[C@@H](Cn1cnnn1)Oc1cc(-c2cnc(Nc3cn([C@@H]4CCN(C5CCC5)C[C@H]4O)nc3C(F)(F)F)nc2)ccc1Cl (mixture of isomers) [Example 898, trans-4-(4-((5-(3-(((S)-1-(1H-tetrazol-1-yl)propan-2-yl)oxy)-4-chlorophenyl)pyrimidin-2-yl)amino)-3-(trifluoromethyl)-1H-pyrazol-1-yl)-1-cyclobutylpiperidin-3-ol] | < 10 |
| CC(C)c1nn(C2CC3(C2)CN(C(=O)OC(C)(C)C)C3)cc1Nc1ncc(-c2ccc(Cl)c(O[C@@H](C)Cn3cnnn3)c2)cn1 [Example 931, tert-butyl (S)-6-(4-((5-(3-((1-(1H-tetrazol-1-yl)propan-2-yl)oxy)-4-chlorophenyl)pyrimidin-2-yl)amino)-3-isopropyl-1H-pyrazol-1-yl)-2-azaspiro[3.3]heptane-2-carboxylate] | 10 to 100 |
| C[C@@H](Cn1cnnn1)Oc1cc(-c2cnc(Nc3cn(C4CC5(C4)CN(CCC(F)(F)F)C5)nc3OCC(F)(F)F)nc2)ccc1Cl [Example 998, (S)-5-(3-((1-(1H-tetrazol-1-yl)propan-2-yl)oxy)-4-chlorophenyl)-N-(3-(2,2,2-trifluoroethoxy)-1-(2-(3,3,3-trifluoropropyl)-2-azaspiro[3.3]heptan-6-yl)-1H-pyrazol-4-yl)pyrimidin-2-amine] | < 10 |
| CCC1(N2CC3(CC(n4cc(Nc5ncc(-c6ccc(Cl)c(O[C@@H](C)Cn7cnnn7)c6)cn5)c(C(C)C)n4)C3)C2)CCOCC1 [Example 953, (S)-5-(3-((1-(1H-tetrazol-1-yl)propan-2-yl)oxy)-4-chlorophenyl)-N-(1-(2-(4-ethyltetrahydro-2H-pyran-4-yl)-2-azaspiro[3.3]heptan-6-yl)-3-isopropyl-1H-pyrazol-4-yl)pyrimidin-2-amine] | < 10 |

Same assay, conditions: Table 2; CaMKIIδ binding assay, activity given as class A/B/C

| SMILES | IC50 [nM] |
| --- | --- |
| C[C@@H](Cn1cnnn1)Oc1cc(-c2cnc(Nc3cn([C@@H](C)C(=O)N4CCOCC4)nc3C(F)(F)F)nc2)ccc1Cl [Example 761, (S)-2-(4-((5-(3-(((S)-1-(1H-tetrazol-1-yl)propan-2-yl)oxy)-4-chlorophenyl)pyrimidin-2-yl)amino)-3-(trifluoromethyl)-1H-pyrazol-1-yl)-1-morpholinopropan-1-one] | 10 to 100 |
| C[C@@H](Cn1cnnn1)Oc1cc(-c2cnc(Nc3cn([C@H]4CC[C@@H](N5CCC5)CC4)nc3C(F)(F)F)nc2)ccc1C#N [Example 773, 2-(((S)-1-(1H-tetrazol-1-yl)propan-2-yl)oxy)-4-(2-((1-(cis-4-(azetidin-1-yl)cyclohexyl)-3-(trifluoromethyl)-1H-pyrazol-4-yl)amino)pyrimidin-5-yl)benzonitrile] | < 10 |
| C[C@@H](Cn1cnnn1)Oc1cc(-c2cnc(Nc3cn([C@H]4CC[C@H](N5[C@@H]6CC[C@H]5COC6)CC4)nc3OCC(F)F)nc2)ccc1Cl [Example 844, 5-(3-(((S)-1-(1H-tetrazol-1-yl)propan-2-yl)oxy)-4-chlorophenyl)-N-(1-(trans-4-((1R,5S)-3-oxa-8-azabicyclo[3.2.1]octan-8-yl)cyclohexyl)-3-(2,2-difluoroethoxy)-1H-pyrazol-4-yl)pyrimidin-2-amine] | < 10 |

Same assay, conditions: Table 2; activity class for CaMKIIδ

| SMILES | IC50 [nM] |
| --- | --- |
| CCc1nn(C2CCN(C3CCOCC3)CC2)cc1Nc1ncc(-c2ccc(Cl)c(O[C@@H](C)Cn3cnnn3)c2)cn1 [Example 632, (S)-5-(3-((1-(1H-tetrazol-1-yl)propan-2-yl)oxy)-4-chlorophenyl)-N-(3-ethyl-1-(1-(tetrahydro-2H-pyran-4-yl)piperidin-4-yl)-1H-pyrazol-4-yl)pyrimidin-2-amine] | < 10 |
| C[C@@H](Cn1cnnn1)Oc1cc(-c2cnc(Nc3cn(CCOCCO)nc3C(F)(F)F)nc2)ccc1Cl [Example 620, (S)-2-(2-(4-((5-(3-((1-(1H-tetrazol-1-yl)propan-2-yl)oxy)-4-chlorophenyl)pyrimidin-2-yl)amino)-3-(trifluoromethyl)-1H-pyrazol-1-yl)ethoxy)ethan-1-ol] | 10 to 100 |
| C[C@@H](Cn1cnnn1)Oc1cc(-c2cnc(Nc3cn(CC(=O)N4CCOCC4)nc3C(F)(F)F)nc2)ccc1Cl [Example 607, (S)-2-(4-((5-(3-((1-(1H-tetrazol-1-yl)propan-2-yl)oxy)-4-chlorophenyl)pyrimidin-2-yl)amino)-3-(trifluoromethyl)-1H-pyrazol-1-yl)-1-morpholinoethan-1-one] | < 10 |
| C[C@@H](Cn1cnnn1)Oc1cc(-c2cnc(Nc3cn(C4CCN(C5CCOCC5)CC4)nc3C#N)nc2)ccc1Cl [Example 592, (S)-4-((5-(3-((1-(1H-tetrazol-1-yl)propan-2-yl)oxy)-4-chlorophenyl)pyrimidin-2-yl)amino)-1-(1-(tetrahydro-2H-pyran-4-yl)piperidin-4-yl)-1H-pyrazole-3-carbonitrile] | < 10 |
| C[C@@H](Cn1cnnn1)Oc1cc(-c2cnc(Nc3cn(C4CNC4)nc3C(F)(F)F)nc2)ccc1Cl [Example 697, (S)-5-(3-((1-(1H-tetrazol-1-yl)propan-2-yl)oxy)-4-chlorophenyl)-N-(1-(azetidin-3-yl)-3-(trifluoromethyl)-1H-pyrazol-4-yl)pyrimidin-2-amine] | < 10 |

Reference: patent publication US10543212B2, “Substituted amines for treating cardiac diseases” (Cardurion Pharmaceuticals, LLC, priority 2017, dated 2020)
